Biological target: T1, WT TALK-2 channels (Homo sapiens, UniProt Q96T54)
T1 sequence (Q96T54 1-332): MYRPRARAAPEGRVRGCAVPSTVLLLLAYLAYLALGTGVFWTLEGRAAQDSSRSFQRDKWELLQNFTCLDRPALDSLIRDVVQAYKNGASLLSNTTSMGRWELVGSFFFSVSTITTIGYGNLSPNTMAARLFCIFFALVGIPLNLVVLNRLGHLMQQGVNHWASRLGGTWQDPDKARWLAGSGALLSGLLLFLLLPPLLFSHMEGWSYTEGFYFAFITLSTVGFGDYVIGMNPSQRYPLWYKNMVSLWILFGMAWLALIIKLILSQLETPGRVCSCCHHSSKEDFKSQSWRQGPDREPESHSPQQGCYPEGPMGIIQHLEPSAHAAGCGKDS
Experiment: Conductance-voltage (G-V) curves from tail currents, V1/2 (intracellular Rb+)
Assay type: cell-based
Set-up: expressed in transfected cells; host or cells: Xenopus laevis oocytes (cRNA injection), excised inside-out patches
Details: for Normalized current: TALK-2 WT + 1 mM TPenA
Excerpt: The voltage-dependent activation mechanism of the SF gate in K2P channels allows to estimate the electrical work (ΔG = zFΔV1/2) required for pore opening by fitting the G–V curve to a Boltzmann equation. […] The open state represents the situation of both gates being simultaneously open but voltage can only exert force on the SF gate that functions as voltage sensor. […] We further tested whether mutations that open the lower gate (L262A and L264A) would affect the extracellular pH sensitivity. […] We further explored this concept of allosteric coupling using the mutations identified in the functional alanine screen of TM2 and TM4. […]
Conductance-voltage (G–V) relationships were determined from tail currents recorded at a holding potential (VH) of −80 mV after 300 ms depolarizing steps as indicated in the respective figure legend. Data were analyzed with a single Boltzmann fit following Eq. 6:6 GV=Imax/1+e^V−V1/2/slope+Ibase where V1/2 represents the voltage of half-maximal activation, s is the slope factor and Imax and Ibase represent the upper and lower asymptotes. Under appropriate experimental conditions, you can use slope to calculate the valence (charge) of the ion moving across the channel. Slope equals R * T/ z * F where R is the universal gas constant, T is temperature in K, F is the Faraday constant, and z is the valence.

CCCCC[N+](CCCCC)(CCCCC)CCCCC [TPenA, Tetra-pentyl-ammonium chloride] was tested, and the “leftward shift of the G-V curve” value (1 mM TPenA, intracellular Rb+) was 46.1 ± 4.9 mV, the Normalized current (Voltage 0.000) was 0.197 and the Normalized current (Voltage 0.005) was 0.242. The Normalized current (Voltage 0.010) was 0.308, the Normalized current (Voltage 0.015) was 0.381 and the Normalized current (Voltage 0.020) was 0.454. For the same compound, the Normalized current (Voltage 0.025) was 0.532, the Normalized current (Voltage 0.030) was 0.607 and the Normalized current (Voltage 0.035) was 0.671. The Normalized current (Voltage 0.040) was 0.728, the Normalized current (Voltage 0.045) was 0.768 and the Normalized current (Voltage 0.050) was 0.808. It also gave a Normalized current (Voltage 0.055) of 0.838, a Normalized current (Voltage 0.060) of 0.865 and a Normalized current (Voltage 0.065) of 0.890. The Normalized current (Voltage 0.070) was 0.906, the Normalized current (Voltage 0.075) was 0.928 and the Normalized current (Voltage 0.080) was 0.937. The Normalized current (Voltage 0.085) was 0.948, the Normalized current (Voltage 0.090) was 0.958 and the Normalized current (Voltage 0.095) was 0.967. For the same compound, the Normalized current (Voltage 0.100) was 0.967, the Normalized current (Voltage 0.105) was 0.966 and the Normalized current (Voltage 0.110) was 0.976. It also gave a Normalized current (Voltage 0.115) of 0.977, a Normalized current (Voltage 0.120) of 0.974 and a Normalized current (Voltage 0.125) of 0.985. The Normalized current (Voltage 0.130) was 0.971, the Normalized current (Voltage 0.135) was 0.973 and the Normalized current (Voltage 0.140) was 0.960. For the same compound, the Normalized current (Voltage 0.145) was 0.967, the Normalized current (Voltage 0.150) was 0.968 and the Normalized current (Voltage 0.155) was 0.943. It also gave a Normalized current (Voltage 0.160) of 0.968, a Normalized current (Voltage -0.005) of 0.160 and a Normalized current (Voltage -0.010) of 0.136. It also gave a Normalized current (Voltage -0.015) of 0.121, a Normalized current (Voltage -0.020) of 0.109 and a Normalized current (Voltage -0.025) of 0.102. It also gave a Normalized current (Voltage -0.030) of 0.098, a Normalized current (Voltage -0.035) of 0.094 and a Normalized current (Voltage -0.040) of 0.089. For the same compound, the Normalized current (Voltage -0.045) was 0.087, the Normalized current (Voltage -0.050) was 0.085 and the Normalized current (Voltage -0.055) was 0.083. The Normalized current (Voltage -0.060) was 0.079, the Normalized current (Voltage -0.065) was 0.079 and the Normalized current (Voltage -0.070) was 0.079. For the same compound, the Normalized current (Voltage -0.075) was 0.077, the Normalized current (Voltage -0.080) was 0.077 and the Normalized current (Voltage -0.085) was 0.078. The Normalized current (Voltage -0.090) was 0.077, the Normalized current (Voltage -0.095) was 0.078 and the Normalized current (Voltage -0.100) was 0.076. It also gave a Normalized current (Voltage -0.105) of 0.077, a Normalized current (Voltage -0.110) of 0.079 and a Normalized current (Voltage -0.115) of 0.077. It also gave a Normalized current (Voltage -0.120) of 0.077 and a V1/2 (TALK-2 WT, 1 mM ligand) of 25.5 mV.
